Tests used:
Solubility in water = format: physicochemical
L-1210 leukemia = experiment: Anti-tumour effect against L-1210 leukemia on mouse; format: in vivo; conditions: T/C x 100 of average survival days; dose 10 mg/kg intraperitoneally once a day for 5 days, starting 24 hours after transplantation of 1 x 10^5 cells/animal
Protocol: Anti-tumour effect against L-1210 leukemia on mouse: • The successively cultured L-1210 leukemia cells in the ascites of a mouse were transplanted intraperitoneally to a group of the mouse at a rate of 1 x 10^5 cells/animal, and after 24 hours of the transplantation, a solution of each of the present compounds dissolved in an aqueous physiological saline solution was intraperitoneally administered to the group of the mouse once a day for 5 days running. By observing the state of the mice, the average survival days of the administered mice (T) and those of the control group (C) were obtained to calculate the prolongation ratio of the mouse's life (T/C x 100).

V-7 tumour = experiment: Anti-tumour effect against V-7 tumour on a rabbit; format: in vivo; conditions: survival days vs not-administered control rabbits; dose 10 mg/kg on the 7th day and 11th day of the transplantation
Protocol: Anti-tumour effect against V-7 tumour on a rabbit: • The cancer cells prepared by extirpating the solid tumour transplated and proliferated in the femoral part of a rabbit, cutting finely and having passed through stainless steel mesh of Tyler standard mesh of ? 200 were transplanted to the thinner muscle of the femoral part of a rabbit by using an injector at a rate of 1.5 x 10^7 cells/animal. On the 7th day and llth day of the transplantation, the present compound was administered to the transplanted rabbit. The prolongation ratio of the rabbit was calculated by the comparison of the survival days of the administered rabbits and the not-administered control rabbits.

Escherichia coli = experiment: Antibacterial activity in vitro, agar plate dilution; format: cell-based; set-up: key: + means the degree of inhibition of the growth of E. Coli; the larger the number of +, the larger the inhibition; ++: + means the degree of inhibition of the growth of E. Coli; the larger the number of +, the larger the inhibition; +++: + means the degree of inhibition of the growth of E. Coli; the larger the number of +, the larger the inhibition; - means that no inhibition of the growth of E. coli was observed; conditions: 18 hours at 37°C, Heart infusion agar
Protocol: Antibacterial activity: • i) A series of 2 times dilution of aqueous solution of each of the present compounds were prepared, and a plate culture medium was prepared by mixing each series with Heart infusion agar culture medium. A strain of Escherichia coli cultured in trypto-soy bouillon at 37°C for 18 hours was inoculated on the thus prepared culture medium, and after culturing for 18 hours at 37°C, the degree of proliferation of the inoculated bacteria was observed, the inoculum being a plutinum loop-full.

[1] = Side effects: nephrotoxicity (albuminurea); format: in vivo, JCL-ICR mouse; conditions: orally 10 mg/kg once a day for 5 days; for Nephrotoxicity: albuminurea
Protocol: Side effects: • The side effects of the present compounds were examined using JCL-ICR mouse as the experimental animal.
Each of the present compounds was orally administered to a group of the mouse at a daily dose rate of 10 mg/kg once a day for 5 days running, the same procedure being carried out on the other group of the mouse by administering BCNU at the same rate.

Structure (SMILES)	Solubility in Water (Solubility in water)	Prolongation ratio (L-1210 leukemia) [%]	Prolongation ratio (V-7 tumour) [%]	degree of inhibition of the growth of E. coli (Escherichia coli; Diluted concentration 1/2)	degree of inhibition of the growth of E. coli (Escherichia coli; Diluted concentration 1/4)	degree of inhibition of the growth of E. coli (Escherichia coli; Diluted concentration 1/8)	degree of inhibition of the growth of E. coli (Escherichia coli; Diluted concentration 1)	Nephrotoxicity [1]	degree of albuminurea ([1]; result in words)
CC(NC(=O)N(CCCl)N=O)C(O)CO (centres unmarked) [3-[3-(2-Chloroethyl)-3-nitrosoureido]-1,2-butanediol]	good	430	210	++	+	+	+++	+ (+ means that albuminurea was observed in one to two animals of the total ten animals.)	
O=NN(CCCl)C(=O)NCCCl [BCNU, 1,3-Bis(2-chloroethyl)-1-nitrosourea, reference compound]	not soluble	204	140	+	-	-	+	+++ (+++ means that albuminurea was observed in eight to nine animals of the total ten animals.)	severely
CCC(CO)(CO)NC(=O)N(CCCl)N=O [2-Ethyl-2-[3-(2-chloroethyl)-3-nitrosoureido]-1,3-propanediol]	good	405	230	++	+	+	+++	+ (+ means that albuminurea was observed in one to two animals of the total ten animals.)	
O=NN(CCCl)C(=O)NCC(O)CO (centres unmarked) [3-[3-(2-Chloroethyl)-3-nitrosoureido]-1,2-propanediol]	good	420	215	++	+	+	+++	+ (+ means that albuminurea was observed in one to two animals of the total ten animals.)	
CC(CO)(CO)NC(=O)N(CCCl)N=O [2-Methyl-2-[3-(2-chloroethyl)-3-nitrosoureido]-1,3-propanediol]	good	410	205	++	++	+	+++	+ (+ means that albuminurea was observed in one to two animals of the total ten animals.)	

From patent publication EP0071374A1, “Nitrosourea derivatives having anti-tumour and anti-bacterial activity” (KUREHA KAGAKU KOGYO KABUSHIKI KAISHA, priority 1981, dated 1983)
